Measured values: patent publication US10039282B2, “Six-membered C—N-bonded aryl sulphide and aryl sulphoxide derivatives as pesticides” (BAYER CROPSCIENCE AKTIENGESELLSCHAFT, priority 2013, dated 2018)
Like-named read-outs stand apart in the source and are kept apart here.

What was measured:
Boophilus microplus = Boophilus microplus injection test; type: in vivo; conditions: 20 μg/animal, assessed after 7 days
Experimental: 1. Boophilus microplus—Injection Test
Solvent: dimethyl sulphoxide
To produce an appropriate active compound formulation, 10 mg of active compound are mixed with 0.5 ml of solvent and the concentrate is diluted with solvent to the desired concentration.
1 μl of the active compound solution is injected into the abdomen of 5 engorged adult female cattle ticks (Boophilus microplus). The animals are transferred into dishes and kept in a climate-controlled room.
The efficacy is assessed after 7 days by laying of fertile eggs. Eggs which are not visibly fertile are stored in a climate-controlled cabinet until the larvae hatch after about 42 days. An efficacy of 100% means that none of the ticks has laid any fertile eggs; 0% means that all the eggs are fertile.

Tetranychus urticae [1] = assay: Tetranychus urticae spray test, OP-resistant (bean leaf discs); type: in vivo; conditions: 500 g/ha, after 6 days
Experimental: 4. Tetranychus urticae—Spray Test, OP-Resistant
(§1) Solvent: 78.0 parts by weight of acetone
(§2) • 1.5 parts by weight of dimethylformamide Emulsifier: alkylaryl polyglycol ether
To produce further test concentrations, the preparation is diluted with emulsifier-containing water.
After 6 days, the efficacy in % is determined. 100% means that all the spider mites have been killed; 0% means that none of the spider mites have been killed.

Tetranychus urticae [2] = assay: Comparative Tetranychus urticae spray test, OP-resistant (TETRUR); type: in vivo; conditions: 144 h
Experimental: 2. Tetranychus urticae—Spray Test; OP-Resistant ([…])
as §1, §2
(§3) To produce an appropriate active compound formulation, 1 part by weight of active compound is dissolved using the specified parts by weight of solvent and made up with water containing an emulsifier concentration of 1000 ppm until the desired concentration is attained. To produce further test concentrations, the preparation is diluted with emulsifier-containing water.
Discs of bean leaves (Phaseolus vulgaris) infested by all stages of the greenhouse red spider mite (Tetranychus urticae) are sprayed with an active compound formulation of the desired concentration.
After the desired period of time, the effect in % is determined 100% means that all the spider mites have been killed; 0% means that none of the spider mites have been killed.

[3] = log P by reversed-phase HPLC analogously to OECD Guideline 117; type: physicochemical; conditions: reversed-phase C18 HPLC column
Experimental: The log P values were determined analogously to OECD Guideline 117 (EC Directive 92/69/EEC) by HPLC (high-performance liquid chromatography) using reversed-phase columns (C 18), by the following methods:
[a] The LC-MS determination in the acidic range is effected at pH 2.7 with 0.1% aqueous formic acid and acetonitrile (contains 0.1% formic acid) as eluents; linear gradient from 10% acetonitrile to 95% acetonitrile. log P^[…] is also referred to as log P(HCOOH). [b] LC-MS determination in the neutral range is effected at pH 7.8 with 0.001 molar aqueous ammonium hydrogencarbonate solution and acetonitrile as eluents; linear gradient from 10% acetonitrile to 95% acetonitrile. log P^[…] is also referred to as log P(neutral).
Calibration is effected with solutions of a homologous series of unbranched alkan-2-ones (having 3 to 16 carbon atoms) with known log P values (log P values determined on the basis of the retention times by linear interpolation between two successive alkanones).

Meloidogyne incognita = Meloidogyne incognita test (sand, lettuce, gall formation after 14 days); type: in vivo; conditions: 20 ppm
Experimental: 2. Meloidogyne Incognita Test
Solvent: 125.0 parts by weight of acetone
To produce an appropriate active compound formulation, 1 part by weight of active compound is mixed with the stated amount of solvent and the concentrate is diluted with water to the desired concentration.
Vessels are filled with sand, active compound solution, an egg/larvae suspension of the southern root-knot nematode (Meloidogyne incognita) and lettuce seeds. The lettuce seeds germinate and the plants develop. The galls develop on the roots.
After 14 days, the nematicidal efficacy in % is determined by the formation of galls. 100% means that no galls were found; 0% means that the number of galls on the treated plants corresponds to the untreated control.

Phaedon cochleariae [4] = assay: Phaedon cochleariae spray test; type: in vivo; conditions: 500 g/ha, after 7 days
Experimental: 3. Phaedon cochleariae—Spray Test
Solvent: 78.0 parts by weight of acetone • • 1.5 parts by weight of dimethylformamide Emulsifier: alkylaryl polyglycol ether
as §3
(§4) Discs of Chinese cabbage leaves (Brassica pekinensis) are sprayed with an active compound formulation of the desired concentration and, after drying, populated with larvae of the mustard beetle (Phaedon cochleariae).
After 7 days, the efficacy in % is determined 100% means that all the beetle larvae have been killed; 0% means that no beetle larvae have been killed.

Tetranychus urticae [5] = assay: Tetranychus urticae spray test, OP-resistant (bean plants); type: in vivo; conditions: 20 ppm, after 7 days
Experimental: 6. Tetranychus urticae—Spray Test, OP-Resistant
Solvent: 7 parts by weight of dimethylformamide
Emulsifier: alkylaryl polyglycol ether
as §3, with “water. If the addition of ammonium salts or/and penetrants is required, these are each added in a concentration of 1000 ppm to the formulation solution.” for “water.”
Bean plants (Phaseolus vulgaris) heavily infested by all stages of the greenhouse red spider mite (Tetranychus urticae) are treated by spraying with the active compound formulation in the desired concentration.
After 7 days, the efficacy in % is determined. 100% means that all the spider mites have been killed; 0% means that none of the spider mites have been killed.

Phaedon cochleariae [6] = assay: whole plant or invertebrate; type: in vivo; conditions: 168 h
Experimental: 1. Phaedon cochleariae—Spray Test (PHAECO)
as §1, §2, §3, §4
After the desired period of time, the effect in % is determined. 100% means that all the beetle larvae have been killed; 0% means that no beetle larvae have been killed.

[7] = acidic range, pH 2.7, 0.1% aqueous formic acid/acetonitrile, read-out: logP (HCOOH)
[8] = neutral range, pH 7.8, 0.001 molar aqueous ammonium hydrogencarbonate/acetonitrile, read-out: logP (neutral)

For `O=c1cc(C(F)(F)F)ncn1-c1cc([S+]([O-])CC(F)(F)F)c(Cl)cc1Cl` (racemic) [Example 4], which “efficacy (no fertile eggs laid)” value (Boophilus microplus) is on record?
The value was 100%.

What about the “efficacy (spider mites killed)” value (Tetranychus urticae [1]) of the same molecule?
The value was 100%.

With `Cc1cc(C)c([S+]([O-])CC(F)(F)F)cc1-n1cnc(C(F)(F)F)cc1=O` (racemic) [Example 6, 3-[2,4-Dimethyl-5-(2,2,2-trifluoroethylsulphinyl)phenyl]-6-(trifluoromethyl)pyrimidin-4-one] as the molecule, how does the “efficacy (no fertile eggs laid)” value (Boophilus microplus) read?
The value was 100%.

And the “efficacy (spider mites killed)” value (Tetranychus urticae [1])?
Its value is 100%.

What about the mortality at 20 g/ha (Tetranychus urticae [2]; TETRUR, 20 g/ha, 6 dat, read-out: % mortality) of the same molecule?
The mortality at 20 g/ha was 100%.

And the chromatographic logP [3, 7]?
Its chromatographic logP is 2.43.

What about the chromatographic logP [3, 8] of the same molecule?
The chromatographic logP was 2.39.

Which “nematicidal efficacy (formation of galls)” value (from here on “nematicidal efficacy”) (Meloidogyne incognita) does the source give for `Cc1ccc(-n2cncc(C)c2=O)cc1[S+]([O-])CC(F)(F)F` (racemic) [Example 27] here?
Its value is 90%.

With `Cc1cc(C)c([S+]([O-])CC(F)(F)F)cc1-n1cnc(C(F)(F)C(F)(F)F)cc1=O` (racemic) [Example 33] as the molecule, how does the “nematicidal efficacy” value (Meloidogyne incognita) read?
The value was 100%.

And the “efficacy (spider mites killed)” value (Tetranychus urticae [1])?
Its value is 100%.

For `O=c1cc(C(F)(F)F)ncn1-c1ccc(Cl)c([S+]([O-])CC(F)(F)F)c1` (racemic) [Example 34], which “efficacy (no fertile eggs laid)” value (Boophilus microplus) is on record?
Its value is 100%.

What about the “efficacy (beetle larvae killed)” value (Phaedon cochleariae [4]) of the same molecule?
Its value is 83%.

And the “efficacy (spider mites killed)” value (Tetranychus urticae [1])?
The value was 100%.

Which “nematicidal efficacy” value (Meloidogyne incognita) does the source give for `O=c1cc(C(F)(F)F)ncn1-c1cc([S+]([O-])CC(F)(F)F)c(Br)cc1F` (racemic) [Example 41] here?
The value was 90%.

And the “efficacy (spider mites killed)” value (Tetranychus urticae [1])?
The value was 100%.

Which results are given for `Cc1cc(C)c([S+]([O-])CC(F)(F)F)cc1-n1cnc(C(F)(F)C(F)(F)F)cc1=O` (racemic) [Example 45]?
nematicidal efficacy (formation of galls) (Meloidogyne incognita): 100%; efficacy (spider mites killed) (Tetranychus urticae [1]): 100%

Which “efficacy (beetle larvae killed)” value (Phaedon cochleariae [4]) does the source give for `Cc1cc(=O)n(-c2cc([S+]([O-])CC(F)(F)F)c(C)cc2F)cn1` (racemic) [Example 46] here?
The value was 83%.

And the “efficacy (spider mites killed)” value (Tetranychus urticae [1])?
The value was 100%.

Which “efficacy (no fertile eggs laid)” value (Boophilus microplus) does the source give for `Cc1ccc(-n2cnc(C(F)(F)F)cc2=O)cc1[S+]([O-])CC(F)(F)F` (racemic) [Example 50] here?
The value was 100%.

And the “efficacy (spider mites killed)” value (Tetranychus urticae [1])?
Its value is 100%.

Which results are given for `Cc1cc(Cl)c(-n2cnc(C(F)(F)F)cc2=O)cc1[S+]([O-])CC(F)(F)F` (racemic) [Example 53]?
efficacy (no fertile eggs laid) (Boophilus microplus): 100%; efficacy (beetle larvae killed) (Phaedon cochleariae [4]): 100%; efficacy (spider mites killed) (Tetranychus urticae [1]): 100%

Which “efficacy (beetle larvae killed)” value (Phaedon cochleariae [4]) does the source give for `Cc1cc(F)c(-n2cnc(C(F)F)cc2=O)cc1[S+]([O-])CC(F)(F)F` (racemic) [Example 55] here?
Its value is 100%.

What about the “efficacy (spider mites killed)” value (Tetranychus urticae [1]) of the same molecule?
The value was 100%.

For `Cc1cc(F)c(-n2cnc(C(F)(F)C(F)(F)F)cc2=O)cc1[S+]([O-])CC(F)(F)F` (single isomer, unassigned) [Example 18], which “efficacy (beetle larvae killed)” value (Phaedon cochleariae [4]) is on record?
Its value is 83%.

And the “efficacy (spider mites killed)” value (Tetranychus urticae [1])?
Its value is 100%.

What does the source list for `Cc1cc(F)c(-n2cnc(C(F)(F)C(F)(F)F)cc2=O)cc1[S+]([O-])CC(F)(F)F` (single isomer, unassigned) [Example 26]?
efficacy (no fertile eggs laid) (Boophilus microplus): 100%; nematicidal efficacy (formation of galls) (Meloidogyne incognita): 90%; efficacy (spider mites killed) (Tetranychus urticae [1]): 100%

For `Cc1cc(C)c([S+]([O-])CC(F)(F)F)cc1-n1cnc(C(F)(F)F)cc1=O` (single isomer, unassigned) [Example 49], which “efficacy (spider mites killed)” value (Tetranychus urticae [5]) is on record?
The value was 100%.

With `Cc1cc(C)c([S+]([O-])CC(F)(F)F)cc1-n1cnc(C(F)(F)F)cc1=O` (single isomer, unassigned) [Example 56] as the molecule, how does the “efficacy (spider mites killed)” value (Tetranychus urticae [5]) read?
The value was 100%.

Which results are given for `N#Cc1ccc(-n2cnc(C(F)(F)F)cc2=O)cc1[S+]([O-])CC(F)(F)F` (centres unmarked) [4-[6-oxo-4-(trifluoromethyl)pyrimidin-1-yl]-2-(2,2,2-trifluoroethylsulphinyl)benzonitrile, reference compound]?
mortality at 500 g/ha (Phaedon cochleariae [6]): 0%; mortality at 20 g/ha (Tetranychus urticae [2]): 0%

Which mortality at 500 g/ha (Phaedon cochleariae [6]) does the source give for `N#Cc1cc(F)c(-n2cnc(C(F)(F)F)cc2=O)cc1[S+]([O-])CC(F)(F)F` (centres unmarked) [5-fluoro-4-[6-oxo-4-(trifluoromethyl)pyrimidin-1-yl]-2-(2,2,2-trifluoroethylsulphinyl)benzonitrile] here?
Its mortality at 500 g/ha is 50%.

With `Cc1cc(F)c(-n2cnc(C(F)(F)F)cc2=O)cc1SCC(F)(F)F` [Example 1, 3-{2-Fluoro-4-methyl-5-[(2,2,2-trifluoroethyl)sulphanyl]phenyl}-6-(trifluoromethyl)pyrimidin-4(3H)-one] as the molecule, how does the “efficacy (spider mites killed)” value (Tetranychus urticae [1]) read?
The value was 100%.

And the chromatographic logP [3, 7]?
Its chromatographic logP is 3.42.

And the chromatographic logP [3, 8]?
The chromatographic logP was 3.4.

Which results are given for `Cc1cc(C)c(-n2cnc(C(F)(F)F)cc2=O)cc1SCC(F)(F)F` [Example 5, 3-[2,4-Dimethyl-5-(2,2,2-trifluoroethylsulphanyl)phenyl]-6-(trifluoromethyl)pyrimidin-4-one]?
efficacy (no fertile eggs laid) (Boophilus microplus): 100%; efficacy (spider mites killed) (Tetranychus urticae [1]): 100%; chromatographic logP [3, 7]: 3.56; chromatographic logP [3, 8]: 3.5

What does the source list for `Cc1cc(F)c(-n2cnc(C(F)(F)C(F)(F)F)cc2=O)cc1SCC(F)(F)F` [Example 9]?
efficacy (no fertile eggs laid) (Boophilus microplus): 100%; nematicidal efficacy (formation of galls) (Meloidogyne incognita): 90%; efficacy (beetle larvae killed) (Phaedon cochleariae [4]): 100%; efficacy (spider mites killed) (Tetranychus urticae [1]): 100%

What does the source list for `Cc1ccc(-n2cncc(F)c2=O)cc1SCC(F)(F)F` [Example 12]?
nematicidal efficacy (formation of galls) (Meloidogyne incognita): 90%; efficacy (spider mites killed) (Tetranychus urticae [1]): 90%

Which “efficacy (no fertile eggs laid)” value (Boophilus microplus) does the source give for `Cc1cc(F)c(-n2cnc(C(C)(F)F)cc2=O)cc1SCC(F)(F)F` [Example 22] here?
Its value is 100%.

What about the “efficacy (spider mites killed)” value (Tetranychus urticae [1]) of the same molecule?
The value was 100%.

With `Cc1cc(C)c(-n2c(C)nc(C(F)(F)F)cc2=O)cc1SCC(F)(F)F` [Example 30] as the molecule, how does the “nematicidal efficacy” value (Meloidogyne incognita) read?
Its value is 90%.

What about the “efficacy (spider mites killed)” value (Tetranychus urticae [1]) of the same molecule?
Its value is 100%.

Which “efficacy (beetle larvae killed)” value (Phaedon cochleariae [4]) does the source give for `Cc1cc(=O)n(-c2cc(SCC(F)(F)F)c(C)cc2F)cn1` [Example 44] here?
The value was 100%.

What about the “efficacy (spider mites killed)” value (Tetranychus urticae [1]) of the same molecule?
The value was 100%.

Which “efficacy (no fertile eggs laid)” value (Boophilus microplus) does the source give for `Cc1ccc(-n2cnc(C(F)(F)F)cc2=O)cc1SCC(F)(F)F` [Example 47] here?
The value was 100%.

What about the “efficacy (spider mites killed)” value (Tetranychus urticae [1]) of the same molecule?
The value was 100%.

With `Cc1cc(Cl)c(-n2cnc(C(F)(F)F)cc2=O)cc1SCC(F)(F)F` [Example 59] as the molecule, how does the “efficacy (no fertile eggs laid)” value (Boophilus microplus) read?
The value was 100%.

And the “efficacy (spider mites killed)” value (Tetranychus urticae [1])?
The value was 100%.
